We go through five molecules from PMC7259758 (PLoS ONE, 2020).

The target of one test is T1, SF3B1 (Homo sapiens, UniProt O75533+Q7RTV0).
T1 construct: endogenous in cells
Kind of test: Competitive antagonist assay (TESLR in the presence of SD6 or hit compound). It counts as cell-based. To be noted: 1 h pre-treatment with analog, then 4 μM SD6 for another 4 hours; read-out: IC50 for antagonism of SD6 activity in the TESLR assay. As to the method:
SK-MEL-2/Luc-MDM2 stable cells were plated at a density of 20,000 cells/well in 96-well plates and incubated overnight at 37°C in 5% CO2.[27, 28] The following day, cells were treated with 14 analogs using serial dilution for one hour. The list of compounds screened as potential TESLR antagonists are show in SI file. After one-hour pre-treatment, 4 μM of SD6 were added to the pre-treated cells for another 4 hours. Either 0.5% DMSO or serial dilutions of SD6 were used to treat cells for 4 hours as controls. At the end of incubation time, ONE-Glo™ EX reagents (Promega) were added to measure the luciferase activity. […]
Fig 6 Competitive antagonist assay. (Left Panel) The assay that identified two antagonists of SD6 activity in the TESLR screen, which are useful for the determination of SF3B1 binding. Relative luminescent units were plotted against corresponding drug concentrations and fitted with a standard four parameter sigmoidal curve with GraphPad Prism. (Right Panel) The structures of the antagonists and SD6. See SI for chemistry details.
. SK-MEL-2/Luc-MDM2 stable cells were plated at a density of 20000/well in 96-well plates and incubated overnight at 37°C in 5% CO2. […]. After one-hour pre-treatment, serial dilutions of the sudemycinol C were added to the pre-treated cells for another 4 hours. […]. At the end of incubation time, ONE-Glo™ EX reagents (Promega) were added to measure the luciferase activity. […]. DR: dose response.

In test [1] the test system is triple-exon skipping of MDM2 pre-mRNA in SK-MEL-2/Luc-MDM2 cells. Kind of test: TESLR (Triple Exon Skipping Luciferase Reporter) dose response. The settings on record: for TESLR Maximum fold change: SK-MEL-2/Luc-MDM2 cells, 4 hours, luciferase activity. Background: A reporter such as luciferase makes a cellular process visible.
Method: SK-MEL-2/MDM2-Luc stable cells were cultured in MEM medium with Earle's salts and L-glutamine containing 1 mM sodium pyruvate, 10% FCS and 10 mM Hepes and plated at a density of 10,000/well in 96-well plates and incubated overnight at 37°C in 5% CO2. The following day, cells were treated with serial dilutions of compounds for 4 hrs, ONE-Glo reagents (Promega) were added to measure the luciferase activity on an EnVision plate reader. SD6 and 0.5% DMSO were used as positive and negative controls, respectively. Relative luminescent units were plotted against corresponding drug concentrations and fitted with a standard four parameter sigmoidal curve with GraphPad Prism.
The TESLR assay in SK-MEL-2/Luc-MDM2 cells with 4 hour treatment. SK-MEL-2/Luc-MDM2 stable cells were plated at a density of 20,000 cells/well in 96-well plates and incubated overnight at 37°C in 5% CO2. The following day, cells were treated with either 0.5% DMSO or serial dilution of hits identified from the library screen in 0.5% DMSO for 4 hours. ONE-Glo™ EX reagent (Promega) was added to measure the luciferase activity using an EnVision plate reader. Relative luminescent units were plotted against corresponding drug concentrations and fitted with a standard four parameter sigmoidal curve with GraphPad Prism.
SK-MEL-2/Luc-MDM2 stable cells were plated at a density of 20,000 cells/well in 96-well plates and incubated overnight at 37°C in 5% CO2. The following day, cells were treated with serial dilutions of the indicated compounds for 4 hours and ONE-Glo™ EX reagents (Promega) were added to measure the luciferase activity.
In a further test the test system is CLK1. Further details: method as in PMID 29191878. The settings on record: chemoproteomic analysis; read-out: affinity for CLK1 (IC50); cited from earlier work.
Where [2] appears, read: Homo sapiens, SK-MEL-2, 4 h, read-out: TESLR IC50 in inducing triple exon skipping.

Read-outs that look alike come from different tables or passages of the source.

In general, IC50 refers to the concentration that inhibits the measured activity by half. For the molecule `CC(C=CC1CC2(CO2)CC(C)(C)O1)=CCC1CCC(NC(=O)C=CC(C)O)CC1` (stereo not shown) [Sudemycinol C, sudemycinol C], on SF3B1, the IC50 is 0.97 µM.
Same read-out and setting: the figure for `CC(C=CC1CC2(CO2)CC(C)(C)O1)=CCC1OCC(NC(=O)C=CC(C)O)CO1` (stereo not shown) [Sudemycinol E, sudemycinol E] is 16.1 µM.
Consider `CN1CC[C@H](c2c(O)cc(O)c3c(=O)cc(-c4ccccc4Cl)oc23)[C@H](O)C1` [flavopiridol], for which the IC50 in test [1] (setting [2]) is above 10 µM.
With `CC(=O)c1c(C)c2cnc(Nc3ccc(N4CCNCC4)cn3)nc2n(C2CCCC2)c1=O` [palbociclib], the IC50 was around 291 µM in test [1] (Homo sapiens, SK-MEL-2, 4 h, read-out: TESLR IC50 (as printed in Fig 5)); 10 to 300 µM in test [1] (setting [2]); 0.276 µM in the test with CLK1. In addition, the “TESLR Maximum fold change” value in test [1] is reported as 2.92.
What is called EC50 is the concentration at which the effect is half-maximal. On to `O=C(O)c1ccc2c(c1)nc(Nc1cccc(Cl)c1)c1ccncc12` [silmitasertib], for which the EC50 in test [1] (Homo sapiens, SK-MEL-2, 4 h, read-out: TESLR EC50) was 19.9 µM. Moreover, in test [1] (setting [2]), the IC50 lay in the range of 10 to 300 µM. For the same molecule, the “TESLR Maximum fold change” value in test [1] is recorded as 31.5.
